Data from patent publication US12098216B2, “Modulators of programmed death-ligand-1 and/or programmed death-ligand-2” (Southern Research Institute, priority 2020, dated 2024).
Square brackets hold non-standard residues; d marks the D form. Peptide text beside a SMILES is read from it. * marks the point of attachment. dPhe(4-CH2NH2) = NCc1ccc(C[C@@H](N)C(=O)O)cc1; dOrn = NCCC[C@@H](N)C(=O)O; Orn = NCCC[C@H](N)C(=O)O; Ac5c = NC1(C(=O)O)CCCC1; PhAc = O=C(Cc1ccccc1)*; Ac3c = NC1(C(=O)O)CC1; Aib = CC(C)(N)C(=O)O

The molecules below were run on PDL-1 and/or PDL-2 signaling (assay: Luciferase assay of dipeptides, Table 1).
Type: cell-based

Row | SMILES | EC50 [µM] | EC50 (μM) Luciferase
1 | CC(C)(NC(=O)[C@@H](Cc1ccc(CN)cc1)NC(=O)Cc1ccc(F)cc1)C(N)=O [Compound 24] | 0.714 | –
2 | NCCC[C@@H](NC(=O)Cc1ccccc1)C(=O)NC1(C(N)=O)CC1 [Compound 14] (PhAc-[dOrn]-[Ac3c]-NH2) | 0.11 | –
3 | CCCC[C@@H](NC(=O)Cc1ccc(F)cc1)C(=O)NC(C)(C)C(N)=O [Compound 39] | 10.3 | –
4 | CC(C)(NC(=O)[C@@H](CCCN)NC(=O)Cc1nc2ccccc2s1)C(N)=O [Compound 40] | 0.07 | –
5 | Cc1c[nH]c(=O)c(NC(=O)[C@@H](CCCN)NC(=O)Cc2ccccc2)c1 [Compound 36] | 1.69 | –
6 | CC(C)(NC(=O)[C@@H](CCCN)NC(=O)Cc1nc2ccccc2o1)C(N)=O [Compound 38] | 19.2 | –
7 | CC(C)(NC(=O)[C@@H](CCCCN)NC(=O)Cc1ccccc1)C(N)=O [Compound 8] (PhAc-[dK]-[Aib]-NH2) | 1.37 | –
8 | CC(C)(NC(=O)[C@@H](CCCN)NC(=O)Cc1ccc(F)cc1)C(N)=O [Compound 4] | 0.47 | –
9 | CC(C)(NC(=O)[C@@H](CCCN)NC(=O)Cc1ccc(F)cc1F)C(N)=O [Compound 29] | 2.58 | –
10 | CC(C)(NC(=O)[C@@H](CCCN)NC(=O)Cc1cc(F)cc(F)c1)C(N)=O [Compound 30] | 2.1 | –
11 | CC(C)(NC(=O)[C@H](CCCN)NC(=O)Cc1ccccc1)C(N)=O [Compound 2] (PhAc-[Orn]-[Aib]-NH2) | 7.9 | –
12 | NCCC[C@@H](NC(=O)Cc1ccc(F)cc1)C(=O)NC1(C(N)=O)CC1 [Compound 15] | 3.32 | –
13 | CC(C)(NC(=O)[C@@H](CCCN)NC(=O)Cc1ccc(Cl)cc1)C(N)=O [Compound 17] | 10.3 | –
14 | CC(C)(NC(=O)[C@@H](CCCN)NC(=O)Cc1cc(F)c(F)c(F)c1)C(N)=O [Compound 32] | 28.3 | –
15 | CC(C)(NC(=O)[C@@H](CCCN)NC(=O)Cc1ccc(F)cc1Cl)C(N)=O [Compound 27] | 10.2 | –
16 | CC(C)(NC(=O)[C@@H](CCCN)NC(=O)Cc1ccncc1)C(N)=O [Compound 34] | 3.48 | –
17 | Cn1cc(C(=O)N[C@H](CCCN)C(=O)NC(C)(C)C(N)=O)c2ccccc21 [Compound 13] | 1.28 | –
18 | CC(C)(NC(=O)[C@@H](CCCN)NC(=O)Cc1ccccc1F)C(N)=O [Compound 9] | 0.05 | –

Row | SMILES | EC50 [µM] | EC50 (μM) Luciferase
19 | CC(C)(NC(=O)[C@@H](CCCN)NC(=O)C(C)(C)c1ccc(F)cc1)C(N)=O [Compound 26] | 3.79 | –
20 | Cc1ccc(CC(=O)N[C@H](CCCN)C(=O)NC(C)(C)C(N)=O)cc1 [Compound 10] | – | Inactive
21 | CC(C)(NC(=O)[C@@H](CCCN)NC(=O)Cc1ccc(OC(F)(F)F)cc1)C(N)=O [Compound 6] | 0.09 | –
22 | CC(C)(NC(=O)[C@@H](CCCN)NC(=O)C(C)(C)c1ccccc1)C(N)=O [Compound 12] | – | Inactive
23 | CC(C)(NC(=O)[C@@H](CCCN)NC(=O)Cc1ccc(C(F)(F)F)cc1)C(N)=O [Compound 3] | 0.01 | –
24 | CC(C)(NC(=O)[C@@H](CCCN)NC(=O)C1(c2ccc(F)cc2)CC1)C(N)=O [Compound 25] | 5.03 | –
25 | CC(C)(NC(=O)[C@@H](CCCN)NC(=O)Cc1ccccc1)C(N)=O [Compound 1, (R)-5-amino-N-(1-amino-2-methyl-1-oxopropan-2-yl)-2-(2-phenylacetamido)pentanamide] (PhAc-[dOrn]-[Aib]-NH2) | 18 | –
26 | COc1ccc(CC(=O)N[C@H](CCCN)C(=O)NC(C)(C)C(N)=O)cc1 [Compound 5] | 0.32 | –
27 | NCCC[C@@H](NC(=O)Cc1ccccc1)C(=O)NC1(C(N)=O)CCCC1 [Compound 7] (PhAc-[dOrn]-[Ac5c]-NH2) | 0.28 | –
28 | Cc1c[nH]c(=O)c(NC(=O)[C@@H](CCCN)NC(=O)Cc2ccc(F)cc2)c1 [Compound 35] | 0.59 | –
29 | CC(C)(NC(=O)[C@H](CCCN)NC(=O)Cc1ccc(C(F)(F)F)cc1)C(N)=O [Compound 42] | 12.1 | –
30 | CC(C)(NC(=O)[C@@H](Cc1ccc(CN)cc1)NC(=O)Cc1ccccc1)C(N)=O [Compound 23] (PhAc-[dPhe(4-CH2NH2)]-[Aib]-NH2) | 17.7 | –
31 | CN(C)CCC[C@@H](NC(=O)Cc1ccc(F)cc1)C(=O)NC(C)(C)C(N)=O [Compound 37] | 23.8 | –
32 | CC(C)(NC(=O)[C@@H](CCCN)NC(=O)Cc1c(F)cccc1F)C(N)=O [Compound 31] | 0.596 | –
33 | CC(C)(NC(=O)[C@@H](CCCN)NC(=O)C1(c2ccccc2)CC1)C(N)=O [Compound 22] | 2.05 | –
34 | CC(C)(NC(=O)[C@@H](CCCN)NC(=O)Cc1cccc(F)c1)C(N)=O [Compound 11] | 1.28 | –
35 | CC(C)(NC(=O)[C@@H](CCCN)NC(=O)Cc1c(F)cc(F)cc1F)C(N)=O [Compound 33] | 0.06 | –
36 | CC(C)(NC(=O)[C@@H](CCCN)NC(=O)Cc1ccc(F)c(F)c1)C(N)=O [Compound 28] | 2 | –

These molecules were tested against PD-1 (assay: Binding affinity (KD) of dipeptides, Table 1).

Row | SMILES | KD
37 | Cc1c[nH]c(=O)c(NC(=O)[C@@H](CCCN)NC(=O)Cc2ccccc2)c1 [Compound 36] | No Binding
38 | CC(C)(NC(=O)[C@@H](CCCN)NC(=O)Cc1ccc(Cl)cc1)C(N)=O [Compound 17] | No Binding
39 | CC(C)(NC(=O)[C@@H](CCCN)NC(=O)Cc1cc(F)c(F)c(F)c1)C(N)=O [Compound 32] | No Binding
40 | CC(C)(NC(=O)[C@@H](Cc1ccc(CN)cc1)NC(=O)Cc1ccccc1)C(N)=O [Compound 23] (PhAc-[dPhe(4-CH2NH2)]-[Aib]-NH2) | No Binding
